Patent US9751837B2, “Kinase inhibitors” (RESPIVERT LIMITED, priority 2014, dated 2017)
In brackets after ≈: the same amount, converted by molar mass.

Legend:
[1] = Solubility in fasted-state simulated colonic fluid (FaSSCoF) at pH 6.5; format: physicochemical; settings: 25 °C, pH 6.5, fassgf or other biorelevant, thermodynamic from solid
Method in brief: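 Compounds were suspended at up to 2-10 mg/mL in pH 6.5 Tris/maleate FaSSCoF containing a five-bile-acid mixture, phosphatidylcholine, palmitic acid and BSA. After 24 h equilibration at 25° C the suspension was filtered and the filtrate quantified by HPLC peak area against a standard.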

Jurkat cells = assay: Cell cytotoxicity assay (r); format: cell-based, human; settings: 24 hours
Method: 1×10^5 Jurkat cells (immortalised human T lymphocytes) are added to the appropriate number of wells of a 96 well plate in 100 μL of media (RPMI supplemented with 10% foetal bovine serum). 1 μL of DMSO control (final concentration 1.0% v/v) or test compound (final concentration 20, 5 or 1 μg/mL) is added to the wells and incubated at 37° C., 5% CO2. After 24 hours, the plate is centrifuged at 1200 rpm for 3 minutes and the supernatant discarded. Cells are then resuspended in 150 μL (final concentration 7.5 μg/mL) of propidium iodide (PI) in PBS and incubated at 37° C., 5% CO2 for 15 minutes. After 15 minutes, cells are analysed by flow cytometry (BD accuri) using the FL3 window. The % viability is calculated as the % of cells that are PI negative in the test wells normalised to the DMSO control.

[2] = pH 6.5 FaSSCoF Solubility (mg/mL) Run 1
[3] = pH 6.5 FaSSCoF Solubility (mg/mL) Run 2

solubility thermodynamic at 24 h [1, 2]	solubility thermodynamic at 24 h [1, 3]	SMILES	% Viability at 20 μg/mL (Jurkat cells)	% Viability at 5 μg/mL (Jurkat cells)
< 1 µg/mL	< 1 µg/mL	COc1cc(Nc2cc(Oc3ccc(NC(=O)Nc4cc(C(C)(C)C)cc(NS(C)(=O)=O)c4OC)c4ccccc34)ccn2)ccc1S(=O)(=O)N(C)CCN1CCN(C)CC1 [17(bb), 4-((4-((4-(3-(5-(tert-Butyl)-2-methoxy-3-(methylsulfonamido)phenyl)ureido)naphthalen-1-yl)oxy)pyridin-2-yl)amino)-2-methoxy-N-methyl-N-(2-(4-methylpiperazin-1-yl)ethyl)benzenesulfonamide]	0.2%	
13 µg/mL (≈ 15.2 µM)	15 µg/mL (≈ 17.6 µM)	COc1cc(Nc2cc(Oc3ccc(NC(=O)Nc4cc(C(C)(C)C)cc(NS(C)(=O)=O)c4OC)c4ccccc34)ccn2)ccc1C(=O)NCCN1CCN(C(C)C)CC1 [17(bf), 4-((4-((4-(3-(5-(tert-Butyl)-2-methoxy-3-(methylsulfonamido)phenyl)ureido)naphthalen-1-yl)oxy)pyridin-2-yl)amino)-N-(2-(4-isopropylpiperazin-1-yl)ethyl)-2-methoxybenzamide]	0.6%	1.5%
16 µg/mL (≈ 19 µM)	19 µg/mL (≈ 22.6 µM)	COc1cc(Nc2cc(Oc3ccc(NC(=O)Nc4cc(C(C)(C)C)cc(NS(C)(=O)=O)c4OC)c4ccccc34)ccn2)ccc1C(=O)NCCC1(O)CCN(C)CC1 [17(bg), 4-((4-((4-(3-(5-(tert-Butyl)-2-methoxy-3-(methylsulfonamido)phenyl)ureido)naphthalen-1-yl)oxy)pyridin-2-yl)amino)-N-(2-(4-hydroxy-1-methylpiperidin-4-yl)ethyl)-2-methoxy benzamide]	0.3%	60.0%
16 µg/mL (≈ 19.1 µM)	19 µg/mL (≈ 22.6 µM)	COc1cc(Nc2cc(Oc3ccc(NC(=O)Nc4cc(C(C)(C)C)cc(NS(C)(=O)=O)c4OC)c4ccccc34)ccn2)ccc1C(=O)N(C)CCN1CCN(C)CC1 [17(bh), 4-((4-((4-(3-(5-(tert-Butyl)-2-methoxy-3-(methylsulfonamido)phenyl)ureido)naphthalen-1-yl)oxy)pyridin-2-yl)amino)-2-methoxy-N-methyl-N-(2-(4-methylpiperazin-1-yl)ethyl)benzamide]	0.6%	
16 µg/mL (≈ 19.1 µM)	17 µg/mL (≈ 20.3 µM)	COc1cc(Nc2cc(Oc3ccc(NC(=O)Nc4cc(C(C)(C)C)cc(NS(C)(=O)=O)c4OC)c4ccccc34)ccn2)ccc1C(=O)NC(C)CN1CCN(C)CC1 (centres unmarked) [17(bl), 4-((4-((4-(3-(5-(tert-Butyl)-2-methoxy-3-(methylsulfonamido)phenyl)ureido)naphthalen-1-yl)oxy)pyridin-2-yl)amino)-2-methoxy-N-(1-(4-methylpiperazin-1-yl)propan-2-yl)benzamide]	0.5%	0.2%
5 µg/mL (≈ 6.35 µM)	5 µg/mL (≈ 6.35 µM)	COc1cc(Nc2cc(Oc3ccc(NC(=O)Nc4cc(C(C)(C)C)cc(NS(C)(=O)=O)c4OC)c4ccccc34)ccn2)ccc1C(=O)NCCOCCO [17(bm), 4-((4-((4-(3-(5-(tert-Butyl)-2-methoxy-3-(methylsulfonamido)phenyl)ureido)naphthalen-1-yl)oxy)pyridin-2-yl)amino)-N-(2-(2-hydroxyethoxy)ethyl)-2-methoxybenzamide]	0.5%	0.2%
35 µg/mL (≈ 44 µM)	33 µg/mL (≈ 41.5 µM)	COc1cc(Nc2cc(Oc3ccc(NC(=O)Nc4cc(NS(C)(=O)=O)cc(C(C)(C)C)c4)c4ccccc34)ccn2)ccc1C(=O)NCCN1CCN(C)CC1 [17(bo), 4-((4-((4-(3-(3-(tert-Butyl)-5-(methylsulfonamido)phenyl)ureido)naphthalen-1-yl)oxy)pyridin-2-yl)amino)-2-methoxy-N-(2-(4-methylpiperazin-1-yl)ethyl)benzamide]	14.0%	
23 µg/mL (≈ 28.4 µM)	24 µg/mL (≈ 29.7 µM)	COc1cc(Nc2cc(Oc3ccc(NC(=O)Nc4cc(NS(C)(=O)=O)cc(C(C)(C)C)c4)c4ccccc34)ccn2)ccc1C(=O)NCCCN1CCN(C)CC1 [17(bp), 4-((4-((4-(3-(3-(tert-Butyl)-5-(methylsulfonamido)phenyl)ureido)naphthalen-1-yl)oxy)pyridin-2-yl)amino)-2-methoxy-N-(3-(4-methylpiperazn-1-yl)propyl)benzamide]	2.0%	41.0%
9 µg/mL (≈ 10.7 µM)	9 µg/mL (≈ 10.7 µM)	COc1c(NC(=O)Nc2ccc(Oc3ccnc(Nc4ccc(C(=O)NCCN5CCN(C)CC5)c(N(C)C)c4)c3)c3ccccc23)cc(C(C)(C)C)cc1NS(C)(=O)=O [17(bq), 4-((4-((4-(3-(5-(tert-Butyl)-2-methoxy-3-(methylsulfonamido)phenyl)ureido)naphthalen-1-yl)oxy)pyridin-2-yl)amino)-2-(dimethylamino)-N-(2-(4-methylpiperazin-1-yl)ethyl)benzamide]	2.0%	
2 µg/mL (≈ 2.38 µM)	2 µg/mL (≈ 2.38 µM)	COc1cc(Nc2cc(Oc3ccc(NC(=O)Nc4cc(C(C)(C)C)cc(NS(C)(=O)=O)c4OC)c4ccccc34)ccn2)cc(OC)c1C(=O)NCC1CCN(C)CC1 [17(ca), 4-((4-((4-(3-(5-(tert-Butyl)-2-methoxy-3-(methylsulfonamido)phenyl)ureido)naphthalen-1-yl)oxy)pyridin-2-yl)amino)-2,6-dimethoxy-N-((1-methylpiperidin-4-yl)methyl)benzamide]		94.0%
9 µg/mL (≈ 9.57 µM)	6 µg/mL (≈ 6.38 µM)	COc1cc(Nc2cc(Oc3ccc(NC(=O)Nc4cc(C(C)(C)C)cc(NS(C)(=O)=O)c4OC)c4ccccc34)ccn2)ccc1C(=O)NCCN1CCN(C(=O)CC[C@H](N)C(=O)O)CC1 [17(cl), (S)-2-Amino-5-(4-(2-(4-((4-((4-(3-(5-(tert-butyl)-2-methoxy-3-(methylsulfonamido)-phenyl)ureido)naphthalen-1-yl)oxy)pyridin-2-yl)amino)-2-methoxybenzamido)ethyl)piperazin-1-yl)-5-oxopentanoic acid]		94.0%
8 µg/mL (≈ 9.96 µM)	9 µg/mL (≈ 11.2 µM)	COc1cc(Nc2cc(Oc3ccc(NC(=O)Nc4cc(C(C)(C)C)cc(NS(C)(=O)=O)c4OC)c4ccccc34)ccn2)ccc1C(=O)NC(CO)(CO)CO [17(cm), 4-((4-((4-(3-(5-(tert-Butyl)-2-methoxy-3-(methylsulfonamido)phenyl)ureido)naphthalen-1-yl)oxy)pyridin-2-yl)amino)-N-(1,3-dihydroxy-2-(hydroxymethyl)propan-2-yl)-2-methoxybenzamide]		77.0%
12 µg/mL (≈ 16.6 µM)	10 µg/mL (≈ 13.8 µM)	COc1cc(Nc2cc(Oc3ccc(NC(=O)Nc4cc(C(C)(C)C)cc(NS(C)(=O)=O)c4OC)c4ccccc34)ccn2)ccc1-c1nn[nH]n1 [Example 24, N-(5-(tert-Butyl)-2-methoxy-3-(3-(4-((2-((3-methoxy-4-(2H-tetrazol-5-yl)phenyl)amino)pyridin-4-yl)oxy)naphthalen-1-yl)ureido)phenyl)methanesulfonamide]	9.7%	
